Like-named read-outs stand apart in the source and are kept apart here.
Columns and labels:
Assay in all cases: NCI SRB assay
COLO 205 = type: cell-based, human
TK-10 = type: cell-based, human; details: for CC50: read-out: LC50 (the source's name)
CAKI-1 = type: cell-based, human; details: for CC50: read-out: LC50 (the source's name)
UACC-62 = type: cell-based, human
IGROV1 = type: cell-based, human; details: for CC50: read-out: LC50 (the source's name)
SNB-19 = type: cell-based, human; details: for CC50: read-out: LC50 (the source's name)
SF-539 = type: cell-based, human
RPMI-8226 = type: cell-based, human; details: for CC50: read-out: LC50 (the source's name)
NCI-H322M = type: cell-based, human; details: for CC50: read-out: LC50 (the source's name)
HT29 = type: cell-based, human
HS 578 T = type: cell-based, human; details: for CC50: Hs-578T, read-out: LC50 (the source's name)
KM12 = type: cell-based, human
T-47D = type: cell-based, human; details: for GI50 / TGI / CC50: 5-dose; for CC50: read-out: LC50 (the source's name)
HCC-2998 = type: cell-based, human; details: for CC50: read-out: LC50 (the source's name)
MDA-MB-435 = type: cell-based; details: for CC50: read-out: LC50 (the source's name)
UACC-257 = type: cell-based, human
[1] = Homo sapiens, IGROV-1, IGROV1, 5-dose
[2] = Homo sapiens, SNB-19, SNB-19, 5-dose
[3] = Homo sapiens, RPMI-8226, RPMI-8226, 5-dose
[4] = Homo sapiens, HT-29, HT29, 5-dose
[5] = Homo sapiens, KM12, KM 12, 5-dose

## Cc1ccc(-c2nc(Nc3ccccc3C(=O)O)c3ccccc3n2)cc1 [6b, 2-((2-(p-Tolyl)quinazolin-4-yl)amino)benzoic acid]
COLO 205; COLO 205, 10 μM
  GI%: – (Only GI% higher than 20% are shown)
COLO 205; COLO 205, 1.00E-5 Molar
  Growth Percent: 80.94%
COLO 205; COLO 205, 5-dose
  TGI: 41.0 µM
COLO 205; COLO 205, 5-dose, listed as D - 835857
  TGI: 4.10E-5 Molar
COLO 205; Homo sapiens, COLO 205, 5-dose
  GI50: 17.8 µM
  LC50 (concentration killing 50% of cells): 94.1 µM
TK-10; Homo sapiens, TK-10, TK-10, 5-dose
  CC50: > 100 µM
TK-10; Homo sapiens, TK-10, 5-dose
  GI50: 29.3 µM
TK-10; TK-10, 10 μM
  GI%: 41%
TK-10; TK-10, 1.00E-5 Molar
  Growth Percent: 58.93%
TK-10; TK-10, 5-dose
  TGI: <100 µM
  CC50: < 100 µM
TK-10; TK-10, 5-dose, listed as D - 835857
  TGI: > 1.00E-4 Molar
CAKI-1; CAKI-1, 10 μM
  GI%: 79%
CAKI-1; CAKI-1, 1.00E-5 Molar
  Growth Percent: 21.08%
CAKI-1; CAKI-1, 5-dose
  TGI: <100 µM
  CC50: < 100 µM
CAKI-1; CAKI-1, 5-dose, listed as D - 835857
  TGI: > 1.00E-4 Molar
CAKI-1; Homo sapiens, CAKI-1, CAKI-1, 5-dose
  CC50: > 100 µM
CAKI-1; Homo sapiens, CAKI-1, 5-dose
  GI50: 13.8 µM
UACC-62; Homo sapiens, UACC-62, 5-dose
  GI50: 10.2 µM
UACC-62; Homo sapiens, UACC-62, 5-dose, read-out: LC50 (the source's name)
  CC50: 71.6 µM
UACC-62; UACC-62, 10 μM
  GI%: 89%
UACC-62; UACC-62, 1.00E-5 Molar
  Growth Percent: 11.04%
UACC-62; UACC-62, 5-dose
  TGI: 27.0 µM
UACC-62; UACC-62, 5-dose, listed as D - 835857
  TGI: 2.70E-5 Molar
IGROV1; [1]
  GI50: 19.1 µM
  CC50: > 100 µM
IGROV1; IGROV1, 10 μM
  GI%: 69%
IGROV1; IGROV1, 1.00E-5 Molar
  Growth Percent: 31.06%
IGROV1; IGROV1, 5-dose
  TGI: 87.1 µM
  CC50: < 100 µM
IGROV1; IGROV1, 5-dose, listed as D - 835857
  TGI: 8.71E-5 Molar
SNB-19; [2]
  GI50: 8.09 µM
  CC50: > 100 µM
SNB-19; SNB-19, 10 μM
  GI%: 91%
SNB-19; SNB-19, 1.00E-5 Molar
  Growth Percent: 8.82%
SNB-19; SNB-19, 5-dose
  GI50: 8.1 µM
  TGI: 81.7 µM
  CC50: < 100 µM
SNB-19; SNB-19, 5-dose, listed as D - 835857
  TGI: 8.17E-5 Molar
SF-539; Homo sapiens, SF-539, 5-dose
  GI50: 11.9 µM
SF-539; Homo sapiens, SF-539, 5-dose, read-out: LC50 (the source's name)
  CC50: 67.2 µM
SF-539; SF-539, 10 μM
  GI%: 79%
SF-539; SF-539, 1.00E-5 Molar
  Growth Percent: 21.26%
SF-539; SF-539, 5-dose
  TGI: 28.3 µM
SF-539; SF-539, 5-dose, listed as D - 835857
  TGI: 2.83E-5 Molar
RPMI-8226; [3]
  GI50: 4.44 µM
  CC50: > 100 µM
RPMI-8226; RPMI-8226, 10 μM
  GI%: 83%
RPMI-8226; RPMI-8226, 1.00E-5 Molar
  Growth Percent: 17.08%
RPMI-8226; RPMI-8226, 5-dose
  GI50: 4.4 µM
  TGI: <100 µM
  CC50: < 100 µM
RPMI-8226; RPMI-8226, 5-dose, listed as D - 835857
  TGI: > 1.00E-4 Molar
NCI-H322M; 10 μM
  GI%: 66%
NCI-H322M; 1.00E-5 Molar
  Growth Percent: 33.77%
NCI-H322M; 5-dose
  TGI: <100 µM
  CC50: < 100 µM
NCI-H322M; 5-dose, listed as D - 835857
  TGI: > 1.00E-4 Molar
NCI-H322M; Homo sapiens, 5-dose
  GI50: 13.6 µM
  CC50: > 100 µM
HT29; HT29, 10 μM
  GI%: 82%
HT29; HT29, 1.00E-5 Molar
  Growth Percent: 17.79%
HT29; HT29, 5-dose
  LC50 (50% lethal concentration): < 100 µM
  TGI: <100 µM
HT29; HT29, 5-dose, listed as D - 835857
  TGI: > 1.00E-4 Molar
HT29; [4]
  GI50: 17.9 µM
  LC50 (50% lethal concentration): > 100 µM
HS 578 T; HS 578 T, 10 μM
  GI%: 109%
HS 578 T; HS 578T, 1.00E-5 Molar
  Growth Percent: -9.53%
HS 578 T; HS 578 T, 5-dose
  TGI: 67.0 µM
HS 578 T; HS 578T, 5-dose
  TGI: 6.70E-5 Molar
HS 578 T; Homo sapiens, HS 578 T, 5-dose
  CC50: < 100 µM
  GI50: 10.2 µM
HS 578 T; Homo sapiens, HS 578T, 5-dose
  CC50: > 100 µM
KM12; [5]
  LC50: < 100 µM
  GI50: 13.7 µM
KM12; Homo sapiens, KM12, KM12, 5-dose
  LC50: > 100 µM
KM12; KM12, 10 μM
  GI%: 92%
KM12; KM12, 1.00E-5 Molar
  Growth Percent: 8.37%
KM12; KM 12, 5-dose
  TGI: 81.2 µM
KM12; KM12, 5-dose
  TGI: 8.12E-5 Molar
T-47D; 10 μM
  GI%: 89%
T-47D; 1.00E-5 Molar
  Growth Percent: 10.72%
T-47D
  GI50: 6.3 µM
  TGI: 70.0 µM
  CC50: < 100 µM
T-47D; listed as D - 835857
  TGI: 7.00E-5 Molar
T-47D; Homo sapiens, T47D
  GI50: 6.29 µM
  CC50: > 100 µM
HCC-2998; HCC-2998, 10 μM
  GI%: 95%
HCC-2998; HCC-2998, 1.00E-5 Molar
  Growth Percent: 5.44%
HCC-2998; HCC-2998, 5-dose
  TGI: 36.0 µM
  CC50: < 100 µM
HCC-2998; HCC-2998, 5-dose, listed as D - 835857
  TGI: 3.60E-5 Molar
HCC-2998; Homo sapiens, HCC 2998, HCC-2998, 5-dose
  CC50: > 100 µM
HCC-2998; Homo sapiens, HCC-2998, 5-dose
  GI50: 12.4 µM
MDA-MB-435; Homo sapiens, MDA-MB-435
  GI50: 13.9 µM
MDA-MB-435; Homo sapiens, MDA-MB-435, MDA-MB-435, 5-dose
  CC50: > 100 µM
MDA-MB-435; MDA-MB-435, 10 μM
  GI%: 77%
MDA-MB-435; MDA-MB-435, 1.00E-5 Molar
  Growth Percent: 23.38%
MDA-MB-435; MDA-MB-435, 5-dose
  TGI: 87.2 µM
  CC50: < 100 µM
MDA-MB-435; MDA-MB-435, 5-dose, listed as D - 835857
  TGI: 8.72E-5 Molar
UACC-257; Homo sapiens, UACC-257, UACC-257, 5-dose, read-out: LC50 (the source's name)
  CC50: > 100 µM
UACC-257; Homo sapiens, UACC-257, 5-dose
  GI50: 15.3 µM
UACC-257; UACC-257, 10 μM
  GI%: 71%

Reference: PMC10035947, “Development of novel anilinoquinazoline-based carboxylic acids as non-classical carbonic anhydrase IX and XII inhibitors” (Journal of Enzyme Inhibition and Medicinal Chemistry, 2023)
